From patent publication US7999064B2 (Abbott Medical Optics Inc., priority 2009, dated 2011) come the findings set out here.

In the data set the test system is L929 cells. The format is cell-based. The protocol:
A direct overlay method which has been adopted by the FDA for MPS registration was used to evaluate the cytotoxicity profile of the PQ1 formulations. In this method, previously-soaked contact lenses (in 100 ml of the solutions to simulate overnight soak) were directly overlayed on L929 cells. The cytotoxicity result was evaluated by scoring each culture under a microscope on a relative scale of 0-4.

Polyquaternium-1 [30K PQ1] displayed a cytotoxicity score of 2.
